Test results from patent publication US9603865B2, “Methods for the treatment of hepatitis B and hepatitis D virus infections” (priority 2014, dated 2017).
Structures can show the parent of a compound that is named as a salt.

Assays:
[1] = system: DHBV; assay: Serum DHBV DNA by quantitative PCR in DHBV infected Pekin ducks, combination treatment (Example III); type: in vivo
Protocol: The antiviral effect of combined treatment with the calcium chelate complex of REP 2139 (REP 2139-Ca) and TDF or REP 2139-Ca and TDF and ETV in DHBV infected Pekin ducks was examined by assessing changes in the levels of serum and liver DHBV DNA during and after treatment by quantitative PCR. Infection of ducks was carried out as described in Example II except that treatment was started one month after infection. Treatment regimens were as follows: • 1) Normal saline given by IP injection 3 times per week for 4 weeks • 2) TDF, given 15 mg/day by oral gavage for 28 days • 3) REP 2139-Ca, given 10 mg/kg by IP injection, 3 times per week for 4 weeks. • 4) REP 2139-Ca and TDF (as dosed above) • 5) REP 2139-Ca and TDF (as dosed above) and ETV given 1 mg/day by oral gavage for 28 days.
Serum DHBV DNA was assessed pre-treatment (time point A), at day 14 of treatment (time point B), at the end of treatment (time point C), and one and two months after treatment was stopped (follow-up, time point D and E).

[2] = system: HBV; assay: Serum HBsAg by on-site qualitative ELISA in a patient with chronic HBV infection (Example I); type: in vivo, human; settings: REP 2055 monotherapy, once weekly IV infusion of 400 mg, 29 weeks, one patient
Protocol: (§1) A pharmaceutically acceptable formulation of the NAP REP 2055 (SEQ ID NO: 2) was administered to a patient with chronic HBV infection by once weekly IV infusion of 400 mg. The serum HBsAg response in this patient was monitored real-time each week using a qualified, on-site qualitative ELISA. This ELISA method is very sensitive to low levels of HBsAg but cannot accurately quantify any significant HBsAg concentration in the blood. […] Therefore, after 29 weeks of REP 2055 monotherapy, this patient received HBV polymerase inhibition therapy in addition to the existing REP 2055 therapy which consisted of 0.5 mg of entecavir taken orally every day.
This synergistic control of serum HBsAg with combined REP 2055/ETV treatment was maintained over many weeks of treatment.

[3] = system: HBV; assay: Serum viremia (serum HBV DNA) in a patient with chronic HBV infection (Example I); type: in vivo, human; settings: REP 2055 monotherapy, once weekly IV infusion of 400 mg, one patient
Protocol: as §1

[4] = system: HBV; assay: Quantitative serum HBsAg by IMPACT platform in a patient with chronic HBV infection (Example I); type: in vivo, human; settings: REP 2055 monotherapy; plateau from 10 weeks until 29 weeks
Source text: To confirm the synergistic activity of combination REP 2055/ETV therapy on suppression of HBsAg, serum samples from this patient were re-analyzed using the IMPACT platform to accurately quantitate serum HBsAg levels as described in de Neit et al. (2014, Antiviral Ther., 19: 259-267). […] Importantly, serum HBsAg reduction in this patient reached a plateau where significant serum HBsAg was stably present starting from 10 weeks of REP 2055 treatment until the start of combination REP 2055/ETV therapy at 29 weeks of treatment.

[5] = system: DHBV; settings: previously established DHBV infection in vivo; cited from earlier work

Molecule	serum DHBV DNA during treatment ([1]; 28 days treatment, day 14 (halfway) and end of treatment, REP 2139-Ca 10 mg/kg IP 3 times per week, TDF 15 mg/day, ETV 1 mg/day oral gavage)	serum DHBV DNA during follow-up ([1]; one and two months after treatment was stopped)	serum HBsAg (qualitative ELISA) [2]	drop in serum viremia (serum HBV DNA) [3]	initial reduction of serum HBsAg (quantitative, IMPACT platform) [4]	cccDNA copy number [5]	cccDNA transcriptional activity [5]	serum duck HBsAg (DHBsAg) [5]
CC(C)OC(=O)OCOP(=O)(CO[C@H](C)Cn1cnc2c(N)ncnc21)OCOC(=O)OC(C)C [TDF, tenofovir disoproxil fumarate]	reduced in all ducks but control was not achieved in all ducks until the end of treatment	rebounded in all ducks	–	–	–	–	–	–
(dAdC)20 (ACACACACACACACACACACACACACACACACACACACAC; DNA, all phosphorothioate, methylation of C not given here) [REP 2055, Each linkage is phosphorothioated]	–	–	no detectable reduction	~1 log	~2 log	reduction in cccDNA copy number	transcriptional inactivation of cccDNA	clearance
